Source: US10770169B2, “Method of providing a treatment to a subject based on a dynamic pathway map” (THE REGENTS OF THE UNIVERSITY OF CALIFORNIA, priority 2010, dated 2020)
Read-outs that look alike come from different tables or passages of the source.

System: panel of 55 breast cancer cell lines
Assay: Cell growth inhibition assay (Cell Titer Glo, 72 h, 9 doses; GI50, TGI, LC50)
Type: cell-based, human
Conditions: Homo sapiens, read-out: GI50 (converted)

SMILES: CC[C@@]1(O)C(=O)OCc2c1cc1n(c2=O)Cc2cc3c(CN(C)C)c(O)ccc3nc2-1 [Topotecan]
- GI50 (AU565, AU565 cell line, censored GI50 values): 18.6 nM
- GI50 (AU565, cell line AU565): 18.6 nM
- GI50 (BT-474, BT474 cell line, censored GI50 values): 2510 nM
- GI50 (BT-474, cell line BT474): 2510 nM
- GI50 (BT-483, BT483 cell line, censored GI50 values): 16.2 nM
- GI50 (BT-483, cell line BT483): 16.2 nM
- GI50 (CAMA-1, CAMA1 cell line, censored GI50 values): 398 nM
- GI50 (CAMA-1, cell line CAMA1): 398 nM
- GI50 (HCC38, HCC38 cell line, censored GI50 values): 3.72 nM
- GI50 (HCC38, cell line HCC38): 3.72 nM
- GI50 (HCC70, HCC70 cell line, censored GI50 values): 19100 nM
- GI50 (HCC70, cell line HCC70): 19100 nM
- GI50 (HCC202, HCC202 cell line, censored GI50 values): 759 nM
- GI50 (HCC202, cell line HCC202): 759 nM
- GI50 (HCC1143, HCC1143 cell line, censored GI50 values): 257 nM
- GI50 (HCC1143, cell line HCC1143): 257 nM
- GI50 (HCC1187, HCC1187 cell line, censored GI50 values): 309 nM
- GI50 (HCC1187, cell line HCC1187): 309 nM
- GI50 (HCC1395, HCC1395 cell line, censored GI50 values): 15.1 nM
- GI50 (HCC1395, cell line HCC1395): 15.1 nM
- GI50 (HCC1419, HCC1419 cell line, censored GI50 values): 363 nM
- GI50 (HCC1419, cell line HCC1419): 363 nM
- GI50 (HCC1428, HCC1428 cell line, censored GI50 values): 447 nM
- GI50 (HCC1428, cell line HCC1428): 447 nM
- GI50 (HCC1500, HCC1500 cell line, censored GI50 values): 14.5 nM
- GI50 (HCC1500, cell line HCC1500): 14.5 nM
- GI50 (HCC1806, HCC1806 cell line, censored GI50 values): 20.4 nM
- GI50 (HCC1806, cell line HCC1806): 20.4 nM
- GI50 (HCC1954, HCC1954 cell line, censored GI50 values): 302 nM
- GI50 (HCC1954, cell line HCC1954): 302 nM
- GI50 (HCC2185 cell line, censored GI50 values): 40.7 nM
- GI50 (HCC3153 cell line, censored GI50 values): 209 nM
- GI50 (LY2 cell line, censored GI50 values): 257 nM
- GI50 (MCF7, MCF7 cell line, censored GI50 values): 1320 nM
- GI50 (MCF7, cell line MCF7): 1320 nM
- GI50 (MDA-MB-134-VI, MDAMB134VI cell line, censored GI50 values): 115 nM
- GI50 (MDA-MB-157, MDAMB157 cell line, censored GI50 values): 398 nM
- GI50 (MDA-MB-157, cell line MDAMB157): 398 nM
- GI50 (MDA-MB-175-VII, MDAMB175VII cell line, censored GI50 values): 2880 nM
- GI50 (MDA-MB-231, MDAMB231 cell line, censored GI50 values): 1170 nM
- GI50 (MDA-MB-231, cell line MDAMB231): 1170 nM
- GI50 (MDA-MB-361, MDAMB361 cell line, censored GI50 values): 525 nM
- GI50 (MDA-MB-361, cell line MDAMB361): 525 nM
- GI50 (MDA-MB-415, MDAMB415 cell line, censored GI50 values): 191 nM
- GI50 (MDA-MB-415, cell line MDAMB415): 191 nM
- GI50 (MDA-MB-436, MDAMB436 cell line, censored GI50 values): 30.2 nM
- GI50 (MDA-MB-436, cell line MDAMB436): 30.2 nM
- GI50 (MDA-MB-453, MDAMB453 cell line, censored GI50 values): 85.1 nM
- GI50 (MDA-MB-453, cell line MDAMB453): 85.1 nM
- GI50 (MDA-MB-468, MDAMB468 cell line, censored GI50 values): 45.7 nM
- GI50 (MDA-MB-468, cell line MDAMB468): 45.7 nM
- GI50 (SK-BR-3, SKBR3 cell line, censored GI50 values): 11.2 nM
- GI50 (SK-BR-3, cell line SKBR3): 11.2 nM
- GI50 (SUM44PE cell line, censored GI50 values): 372 nM
- GI50 (SUM52PE, SUM52PE cell line, censored GI50 values): 8.32 nM
- GI50 (SUM52PE, cell line SUM52PE): 8.32 nM
- GI50 (SUM185PE, SUM185PE cell line, censored GI50 values): 63.1 nM
- GI50 (SUM185PE, cell line SUM185PE): 63.1 nM
- GI50 (SUM1315MO2, SUM1315MO2 cell line, censored GI50 values): 8.32 nM
- GI50 (SUM-159-PT, SUM159PT cell line, censored GI50 values): 741 nM
- GI50 (SUM-159-PT, cell line SUM159PT): 741 nM
- GI50 (UACC-812, UACC812 cell line, censored GI50 values): 60.3 nM
- GI50 (UACC-812, cell line UACC812): 60.3 nM
- GI50 (UACC-893, UACC893 cell line, censored GI50 values): 347 nM
- GI50 (UACC-893, cell line UACC893): 347 nM
- GI50 (ZR-75-1, ZR751 cell line, censored GI50 values): 40.7 nM
- GI50 (ZR-75-1, cell line ZR751): 40.7 nM
- GI50 (ZR-75B, ZR75B cell line, censored GI50 values): 63.1 nM
- GI50 (ZR-75B, cell line ZR75B): 63.1 nM
- GI50 (cell line HCC2185): 40.7 nM
- GI50 (cell line HCC3153): 209 nM
- GI50 (cell line LY2): 257 nM
- GI50 (cell line MDAMB134V): 115 nM
- GI50 (cell line MDAMB175V): 2880 nM
- GI50 (cell line SUM44PE): 372 nM
- GI50 (cell line SUM1315MO): 8.32 nM
